Experimental data as given in paper PMC10825690, “Crystal structures of human immune protein FIBCD1 suggest an extended binding site compatible with recognition of pathogen-associated carbohydrate motifs” (The Journal of Biological Chemistry, 2023).
Where a chain is given by its changes, count along the chain named.

Columns and labels:
FIBCD1-FReD [1] = molecular target: T1, FIBCD1-FReD (Homo sapiens, UniProt Q8N539); experiment: Microscale thermophoresis (MST) affinity assay; assay type: binding; conditions: for Kd: labeled FIBCD1-FReD 30 nM, TBS/Tw 5 mM CaCl2, 25 °C, mean ± SD, three to four measurements
T1 construct: FIBCD1-FReD (residues 236–461) was expressed in Sf9 insect cells; made in house; host or cells: Sf9 insect cells (pNT-Bac vector)
T1 sequence (Q8N539 236-461): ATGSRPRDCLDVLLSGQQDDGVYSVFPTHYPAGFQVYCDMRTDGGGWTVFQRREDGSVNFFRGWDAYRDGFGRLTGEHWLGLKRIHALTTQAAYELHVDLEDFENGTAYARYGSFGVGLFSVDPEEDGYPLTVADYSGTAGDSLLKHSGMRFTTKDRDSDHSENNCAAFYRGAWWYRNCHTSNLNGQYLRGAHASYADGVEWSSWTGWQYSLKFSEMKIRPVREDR
Method: (§1) The binding of FIBCD1-FReD with GlcNAc, (GlcNAc)3, and longer N-acetylchitooligosaccharides of defined length ((GlcNAc)5 and (GlcNAc)11) was investigated by ELISA. The relative affinity for these carbohydrates was assessed by inhibiting the binding of FIBCD1 to immobilized acetylated bovine serum albumin (AcBSA) in microtiter plates. […] The ligand-binding properties of FIBCD1-FReD were further evaluated using microscale thermophoresis (MST) measurements.
(§2) The cloning, expression, and purification of FIBCD1-FReD have been described in detail ([1]). Briefly, for the protein used for the ligand-bound crystal structures, the initial enzyme-linked immunosorbent inhibition assay (ELISA) and the MST affinity assay, FIBCD1-FReD (residues 236–461) was expressed in Sf9 insect cells using the pNT-Bac vector expression system. The recombinant FIBCD1-FReD variants used for the native crystal structure and for the repeated measurements of (GlcNAc)n n = 1, 2, 3 inhibition by ELISA, the same fragments of FIBCD1-FReD (wildtype, H396A, and K381L) were expressed in Chinese hamster ovary (CHO) cells using the ExpiCHO expression system (ThermoFisher Scientific) with FIBCD1-FReD (including the IgG K signal peptide for secretion) cloned into the pcDNA3.1+ plasmid (Genscript). Purification of the FIBCD1-FReD variants, regardless of the expression system, was achieved through affinity chromatography using acetylated Toyopearl AF-Amino-650M resin (Tosoh) followed by ion-exchange chromatography using a Resource Q ion-exchange column (GE Healthcare) as outlined in Schlosser et al. (Ref ([1])).
The affinity between recombinant FIBCD1-FReD and the acetylated sugars GlcNAc, (GlcNAc)5 and ManNAc as well as AcBSA was determined by MST. FIBCD1-FReD expressed by insect cells was labeled using the Monolith NT Protein Labeling Kit RED-NHS (NanoTemper Technologies) according to the manufacturer’s instructions. Removal of unreacted dye was performed with the supplied columns equilibrated in TBS containing 5 mM CaCl2. Labeled FIBCD1-FReD was diluted in assay buffer (TBS/Tw containing 5 mM CaCl2) and used at a constant concentration of 30 nM throughout the experiments, whereas the putative ligands were titrated in 2-fold dilutions, ranging from 0.6 nM to 10 μM (AcBSA), 100 μM to 200 mM (GlcNAc), 50 μM to 100 mM (GlcNAc)5, and 250 μM to 500 mM (ManNAc). For the measurements, all ligands were incubated with labeled FIBCD1-FReD for 20 min at RT (21–22 °C) before being loaded into standard capillaries (NanoTemper Technologies). […] Data from three to four independently pipetted experiments were analyzed using the NanoTemper Analysis 1.2.20 software and used to fit the data for determination of the Kd values.

FIBCD1-FReD [2] = molecular target: T1, FIBCD1-FReD; experiment: ELISA inhibition of FIBCD1-FReD (insect cell expressed) binding to immobilized AcBSA; conditions: insect cell expressed FIBCD1-FReD 50 ng/ml, 5 mM CaCl2, mean ± SD, three to four experiments
Method: as §1, §2
(§3) The specificity of the binding of recombinant FIBCD1-FReD, expressed in insect cells, to AcBSA was assayed in technical duplicates by inhibition with acetylated compounds, including GlcNAc (Sigma-Aldrich) and three N-acetylchitooligosaccharides of defined length ((GlcNAc)3, (GlcNAc)5, and (GlcNAc)11) and acetylation (66%), which were kindly provided by Professor Morten Sølie (Norwegian University of Life Sciences). […]

[3] = molecular target: T2, mutant variant H396A FIBCD1-FReD (Homo sapiens, UniProt Q8N539, H396A); experiment: Repeated ELISA inhibition of H396A FIBCD1-FReD (CHO expressed) binding to AcBSA; conditions: ELISA repeated measurements, mean ± SD, five experiments
T2 construct: FIBCD1-FReD (residues 236–461) was expressed in Sf9 insect cells; IgG K signal peptide (N); made in house; host or cells: CHO cells (ExpiCHO system, pcDNA3.1+)
T2 sequence (Q8N539 236-461 H396A): T1 sequence (Q8N539 236-461) with H161A
Excerpt: (§4) For S1(2), the mutation K381L was chosen to block this site. In the crystal structure of the homologous protein ficolin-3 the overall topology of this pocket is similar but the Leu381 side chain extends into the site and a similar orientation in FIBCD1 would preclude the ligand binding in this pocket (see Fig. S5). […] For the S1(3) site, the mutation H396A was used. There is no significant difference in affinity for H396A compared with wildtype for each GlcNAc ligand investigated (see Fig. S6C).
as §2, §3

[4] = molecular target: T3, wildtype (WT) FIBCD1-FReD (Homo sapiens, UniProt Q8N539); experiment: Repeated ELISA inhibition of wildtype FIBCD1-FReD (CHO expressed) binding to AcBSA; conditions: ELISA repeated measurements, mean ± SD, eight experiments
T3 construct: FIBCD1-FReD (residues 236–461) was expressed in Sf9 insect cells; IgG K signal peptide (N); made in house; host or cells: CHO cells (ExpiCHO system, pcDNA3.1+)
T3 sequence (Q8N539 236-461): T1 sequence (Q8N539 236-461)
Excerpt: To study the finer details of short oligomer recognition, binding of GlcNAc, (GlcNAc)2, and (GlcNAc)3 was further investigated by ELISA.
as §2
as §3, with “Sciences). The monoclonal antibodies used in the study here were generated in-house at the University of Southern Denmark and chosen from a large series of monoclonal antibodies raised against the FReD domain (human) in FIBCD1-deficient mice—details for the production are given in ([3]).” for “Sciences).”

FIBCD1 = tested on: FIBCD1; set-up: method as in PMID 19710473; conditions: comparison with GlcNAc; cited from earlier work
[5] = molecular target: T4, FIBCD1-FReD mutant variant K381L (Homo sapiens, UniProt Q8N539, K381L); experiment: ELISA binding of K381L FIBCD1-FReD to AcBSA; conditions: two different detection antibodies (clones 11-14-25 and 11-14-13)
T4 construct: FIBCD1-FReD (residues 236–461) was expressed in Sf9 insect cells; IgG K signal peptide (N); made in house; host or cells: CHO cells (ExpiCHO system, pcDNA3.1+)
T4 sequence (Q8N539 236-461 K381L): T1 sequence (Q8N539 236-461) with K146L
Excerpt: as §4
as §3, with “Sciences). The monoclonal antibodies used in the study here were generated in-house at the University of Southern Denmark and chosen from a large series of monoclonal antibodies raised against the FReD domain (human) in FIBCD1-deficient mice—details for the production are given in ([3]).” for “Sciences).”

Row | Kd (FIBCD1-FReD [1]) [mM] | IC50 (FIBCD1-FReD [2]) [mM] | IC50 [3] [mM] | IC50 [4] [mM] | Compound | also measured
1 | 1.2 ± 0.4 | 0.1 ± 0.03 | – | – | (GlcNAc)5 | fold difference in affinity (Kd) between GlcNAc and (GlcNAc)5 (FIBCD1-FReD [1]; MST, GlcNAc Kd versus (GlcNAc)5 Kd): 23 fold
2 | 27 ± 9 | 2 ± 0.22 | 2.4 ± 0.22 | 2.2 ± 0.19 | CC(=O)N[C@@H]1[C@@H](O)[C@H](O)[C@@H](CO)O[C@H]1O [GlcNAc, N-acetylglucosamine] | –
3 | – | – | – | – | CC(=O)N[C@H]1[C@H]([C@H](O)[C@H](O)CO)OC(O)(C(=O)O)C[C@@H]1O (stereo partly drawn) [Neu5Ac, N-acetylneuraminic acid] | IC50 relative to GlcNAc (FIBCD1): lower IC50 than GlcNAc
4 | – | 0.5 ± 0.06 | 1.2 ± 0.14 | 1.1 ± 0.1 | CC(=O)N[C@H]1[C@H](O[C@H]2[C@H](O)[C@@H](NC(C)=O)C(O)O[C@@H]2CO)O[C@H](CO)[C@@H](O[C@@H]2O[C@H](CO)[C@@H](O)[C@H](O)[C@H]2NC(C)=O)[C@@H]1O (stereo partly drawn) [(GlcNAc)3] | –
5 | – | – | – | – | AcBSA: acetylated bovine serum albumin, poly-acetylated model ligand | binding of K381L FIBCD1-FReD to AcBSA in ELISA [5]: did not bind
6 | – | – | 1.4 ± 0.11 | 1.4 ± 0.16 | CC(=O)N[C@H]1[C@H](O[C@H]2[C@H](O)[C@@H](NC(C)=O)C(O)O[C@@H]2CO)O[C@H](CO)[C@@H](O)[C@@H]1O (stereo partly drawn) [(GlcNAc)2, N,N′-diacetylchitobiose] | –

Row | Compound | Kd (FIBCD1-FReD [1]) [mM] | IC50 (FIBCD1-FReD [2]) [mM] | IC50 [3] [mM] | IC50 [4] [mM] | also measured
7 | CC(=O)N[C@@H]1C(O)O[C@H](CO)[C@@H](O)[C@@H]1O (stereo partly drawn) [ManNAc, N-acetyl-D-mannosamine] | 31 ± 8 | – | – | – | –
